From patent US12084680B2, “Methods for efficient derivation of human motor neurons from diverse spinal regions” (Wisconsin Alumni Research Foundation, priority 2016, dated 2024)

Tested on: GLI1, GLI2, GLI3
Assay: qPCR of GLI transcription factors in day 6 cultures
Assay type: cell-based, human
Conditions: 6 μM CHIR maintained during RA and PM/SHH exposure, day 6, versus 0 μM CHIR
Description: To begin, we sequentially differentiated H9 hESCs in E6 media for 1 day, and FGF8b (200 ng/mL) for 1 day, and FGF8b and CHIR (3 μM) for 2 days to generate cervical neuromesoderm (FIGS. 5A-5B). Then, we screened the effects of CHIR, PM, and SHH treatment on NKX6.1^+/PAX6^+/OLIG2^+ motor neuron progenitor induction while transitioning to media containing 1 μM RA (FIGS. 5A-5D). Prior to the addition of RA, NKX6.1 was expressed in the cervical neuromesodermal state at day 4 (80±18% NKX6.1^+; data not shown), likely due to the CHIR-induced Wnt/β-catenin signaling (FIGS. 4A-4H). Transitioning the neuromesodermal progenitors to RA-containing media for 2 days induced HOXB4^+/HOXC6^+/HOXC9^−/HOXD10^−/PAX6^+ cervical neuroectoderm in all conditions (FIGS. 5B-5C), as expected. However, without co-activation of SHH signaling by PM or SHH, NKX6.1 expression was quickly lost by day 6 (97±1% PAX6^+, 17±3% NKX6.1^+) (FIG. 5C). […] To bolster this claim, we also analyzed the abundance of full-length GLI3 versus its truncated repressor form by western blot. […] Thus, Wnt/β-catenin signaling is necessary to induce ventral identity, but its continuous activation during OLIG2 induction by SHH signaling is detrimental to motor neuron differentiation, possibly due to activation of the GLI3 repressor.
Thoracic identity was reached after an additional 24 h. Then, to reach the lumbosacral level, cells were given 30 ng/ml GDF11 and 1 μM DM for an additional 48 h. For neuroectoderm induction and generation of OLIG2^+ progenitors, FGF8b was removed at the designated time points and the concentration of CHIR was increased for 6 h as described in the text, followed by a transition to media containing RA, PM, and SHH for a period of 48 h. […]

With `Cc1c[nH]c(-c2cnc(NCCNc3ccc(C#N)cn3)nc2-c2ccc(Cl)cc2Cl)n1` [CHIR, CHIR99021] the “decrease in GLI1 expression (qPCR)” value was > 8 fold, the “decrease in GLI2 expression (qPCR)” value was > 4 fold and the “increase in GLI3 expression (qPCR)” value was ~2 fold.
